# Read-outs that look alike come from different tables or passages of the source.
# Tests used:
# [1] = test system: E. coli NCTC 10418; assay: MIC by agar dilution, veterinary bacteria; conditions: Escherichia coli, NCTC10418, 24 h
# [2] = test system: Strep. suis (group D) SPS11; assay: MIC by agar dilution, veterinary bacteria; conditions: Streptococcus suis, 24 h
# [3] = test system: M. hyorhinis ATCC 23234; assay: in vitro MIC by serial dilution in Friis modified agarose medium; type: cell-based; conditions: Mesomycoplasma hyorhinis, ATCC23234; Table 3
# [4] = Mouse blood levels of Example 3 following oral and subcutaneous administration; type: in vivo, albino male mice (strain OLAC: MF-1); conditions: read-out: blood conc.; for concentration at 0.5 h: 30 min; for concentration at 0.75 h: 45 min; for concentration at 1 h: 60 min; for concentration at 1.5 h: 90 min
# Procedure: Mouse blood levels of Example 3 following its oral and subcutaneous administration
# Blood levels were assessed in albino male mice (strain OLAC: MF-1, 18-22 g). The dose was 50 mg/kg administered in a 10% ethanol solution orally and subcutaneously. The mice were killed at intervals up to 90 min and the blood assayed microbiologically using B. subtilis ATCC 6633 in TSA at pH 8.0.
# [5] = test system: M. dispar NCTC 10125; assay: in vitro MIC by serial dilution in Friis modified agarose medium; type: cell-based
# [6] = test system: M. suipneumoniae ATCC 25095; assay: as above; type: cell-based; conditions: Mesomycoplasma hyopneumoniae, ATCC25095; Table 3
# [7] = test system: M. suipneumoniae TAM 6N; assay: as above; type: cell-based; conditions: Mesomycoplasma hyopneumoniae, TAM6N; Table 3
# [8] = Mean serum concentrations in milk weaned piglets after oral administration; type: in vivo; conditions: pig, p.o. 50 mg/kg
# Procedure: Mean serum concentrations in milk weaned piglets of Example 3 after oral administration at 50 mg/kg
# Blood levels were assessed in milk weaned piglets (mean bodyweight 4.1 kg). The dose was 50 mg/kg administered orally (intubation) as a 25 mg/ml of 25% aqueous ethanol solution. Piglets were bled at intervals up to […] and the serum assayed microbiologically using B. subtilis ATCC 6633.
# [9] = test system: Staph. aureus Oxford; assay: MIC by agar dilution, veterinary bacteria; conditions: Staphylococcus aureus, 24 h
# [10] = test system: Strep. pyogenes B 2788; assay: MIC by serial dilution in nutrient agar with 5% chocolated horse blood; type: cell-based; conditions: Streptococcus pyogenes, B2788; Table 1
# [11] = test system: M. hyorhinis ATCC 25021; assay: in vitro MIC by serial dilution in Friis modified agarose medium; type: cell-based; conditions: Mesomycoplasma hyorhinis, ATCC25021; Table 3
# [12] = test system: E. coli ESS; assay: MIC by serial dilution in nutrient agar with 5% chocolated horse blood; type: cell-based; conditions: Escherichia coli; Table 1
# [13] = test system: Staph. aureus 152 (pen sens); assay: MIC by agar dilution, veterinary bacteria; conditions: Staphylococcus aureus, 24 h
# [14] = test system: Staph. aureus W2827; assay: MIC by serial dilution in nutrient agar with 5% chocolated horse blood; type: cell-based; conditions: Staphylococcus aureus, Table 1
# [15] = test system: M. bovis NCTC 10131; assay: microbe, parasite or virus in culture; type: cell-based; conditions: NCTC10131
# [16] = test system: P. mirabilis 889; assay: MIC by serial dilution in nutrient agar with 5% chocolated horse blood; type: cell-based; conditions: Proteus mirabilis
# [17] = test system: Past. multocida PA1; assay: MIC by agar dilution, veterinary bacteria; conditions: Pasteurella multocida, PA1, 24 h
# [18] = test system: Strep. pyogenes C 2761; assay: MIC by serial dilution in nutrient agar with 5% chocolated horse blood; type: cell-based; conditions: Streptococcus pyogenes, C2761; Table 1
# [19] = Mean serum concentrations in neonatal piglets after intramuscular or oral administration; type: in vivo; conditions: pig; for concentration at 1 h: 60'
# Procedure: Mean serum concentrations in neonatal piglets of Example 3 after intramuscular or oral administration at 50 mg/kg
# Blood levels were assessed in neonatal piglets (mean bodyweight ca. 3 kg). The dose was 50 mg/kg administered as a 25 mg/ml of 25% aqueous ethanol solution. Doses were given by intramuscular injection and orally by stomach tube. Piglets were bled at intervals up to 24 hr and the serum assayed microbiologically using B. subtilis ATCC 6633.
# [20] = test system: M. bovigenitalium ATCC 14173; assay: in vitro MIC by serial dilution in Friis modified agarose medium; type: cell-based
# [21] = test system: Strep. pyogenes A 64/848; assay: MIC by serial dilution in nutrient agar with 5% chocolated horse blood; type: cell-based; conditions: Streptococcus pyogenes, A64/848; Table 1
# [22] = Mouse blood levels of Example 1 following oral and subcutaneous administration; type: in vivo, albino male mice; conditions: read-out: blood conc.; for concentration at 0.5 h: 30 min; for concentration at 1 h: 60 min; for concentration at 2 h: 120 min; for concentration at 4 h: 240 min
# Procedure: Mouse blood levels of Example 1 following its oral and subcutaneous administration
# Blood levels were assessed in albino male mice (18-22 g CSI). The dose was 50 mg/kg administered in a 10% DMF solution orally and subcutaneously. The mice were killed at intervals up to 4 hours and the blood assayed microbiologically using B. subtilis.
smiles,measurement,setting,value
"CCCCC(=O)C=C(C)CC1OCC(CC2OC2C(C)C(C)O)C(O)C1O [Example 3, 1-[3R,4R-Dihydroxy-5S-(2S,3S-epoxy-5S-hydroxy-4S-methylhexyl)tetrahydropyran-2S-yl]-2-methyloct-2E-en-4-one]",MIC,[1],> 80 µg/mL
same,MIC,[2],> 80 µg/mL
same,MIC,[3],0.5 µg/mL
same,concentration at 5 min,[4]; oral 50 mg/kg,9400 ng/mL
same,concentration at 10 min,[4]; oral 50 mg/kg,5100 ng/mL
same,concentration at 20 min,[4]; oral 50 mg/kg,< 1500 ng/mL
same,concentration at 0.5 h,[4]; oral 50 mg/kg,< 1500 ng/mL
same,concentration at 0.75 h,[4]; oral 50 mg/kg,< 1500 ng/mL
same,concentration at 1 h,[4]; oral 50 mg/kg,< 1500 ng/mL
same,concentration at 1.5 h,[4]; oral 50 mg/kg,< 1500 ng/mL
same,concentration at 5 min,"[4]; sc, subcutaneous 50 mg/kg",19800 ng/mL
same,concentration at 10 min,"[4]; sc, subcutaneous 50 mg/kg",15500 ng/mL
same,concentration at 20 min,"[4]; sc, subcutaneous 50 mg/kg",7300 ng/mL
same,concentration at 0.5 h,"[4]; sc, subcutaneous 50 mg/kg",2200 ng/mL
same,concentration at 0.75 h,"[4]; sc, subcutaneous 50 mg/kg",< 1500 ng/mL
same,concentration at 1 h,"[4]; sc, subcutaneous 50 mg/kg",< 1500 ng/mL
same,concentration at 1.5 h,"[4]; sc, subcutaneous 50 mg/kg",< 1500 ng/mL
same,MIC,"[5]; Table 3, read-out: MIC",0.25 µg/mL
same,MIC,[6],1 µg/mL
same,MIC,[7],1 µg/mL
same,concentration at 10 min,[8]; 10',2100 ng/mL
same,concentration at 20 min,[8]; 20',1900 ng/mL
same,concentration at 40 min,[8]; 40',720 ng/mL
same,concentration at 1 h,[8]; 60',1100 ng/mL
same,concentration at 2 h,[8]; 2 hr,480 ng/mL
same,concentration at 3 h,[8]; 3 hr,370 ng/mL
same,concentration at 4 h,[8]; 4 hr,200 ng/mL
same,concentration at 6 h,[8]; 6 hr,110 ng/mL
same,concentration at 8 h,[8]; 8 hr,< 60 ng/mL
same,MIC,[9],2.5 µg/mL
same,MIC,[10],2.5 µg/mL
same,MIC,[11],0.5 µg/mL
same,MIC,[12],1 µg/mL
same,MIC,[13],2.5 µg/mL
same,MIC,[14],2.5 µg/mL
same,MIC,[15],0.025 µg/mL
same,MIC,"[16]; Table 1, read-out: MIC",100 µg/mL
same,MIC,[17],2.5 µg/mL
same,MIC,[18],2.5 µg/mL
same,concentration at 10 min,"[19]; im, i.m. 50 mg/kg",8500 ng/mL
same,concentration at 20 min,"[19]; im, i.m. 50 mg/kg",7900 ng/mL
same,concentration at 40 min,"[19]; im, i.m. 50 mg/kg",5100 ng/mL
same,concentration at 1 h,"[19]; im, i.m. 50 mg/kg",4300 ng/mL
same,concentration at 2 h,"[19]; im, i.m. 50 mg/kg",1300 ng/mL
same,concentration at 3 h,"[19]; im, i.m. 50 mg/kg",1200 ng/mL
same,concentration at 4 h,"[19]; im, i.m. 50 mg/kg",< 70 ng/mL
same,concentration at 10 min,"[19]; po, p.o. 50 mg/kg",3100 ng/mL
same,concentration at 20 min,"[19]; po, p.o. 50 mg/kg",2000 ng/mL
same,concentration at 40 min,"[19]; po, p.o. 50 mg/kg",1400 ng/mL
same,concentration at 1 h,"[19]; po, p.o. 50 mg/kg",830 ng/mL
same,concentration at 2 h,"[19]; po, p.o. 50 mg/kg",700 ng/mL
same,concentration at 3 h,"[19]; po, p.o. 50 mg/kg",600 ng/mL
same,concentration at 4 h,"[19]; po, p.o. 50 mg/kg",< 70 ng/mL
same,MIC,"[20]; Table 3, read-out: MIC",0.05 µg/mL
"CCC(=O)C=C(C)CC1OCC(CC2OC2C(C)C(C)O)C(O)C1O [Example 2, 1-[3R,4R-Dihydroxy-5S-(2S,3S-epoxy-5-S-hydroxy-4S-methylhexyl)tetrahydropyran-2S-yl]-2-methylhex-2E-en-4-one]",MIC,[1],> 40 µg/mL
same,MIC,[2],> 40 µg/mL
same,MIC,[3],2.5 µg/mL
same,MIC,[5],0.5 µg/mL
same,MIC,[6],2.5 µg/mL
same,MIC,[21],12.5 µg/mL
same,MIC,[7],2.5 µg/mL
same,MIC,[9],0.312 µg/mL
same,MIC,[10],25 µg/mL
same,MIC,[11],2.5 µg/mL
same,MIC,[13],0.312 µg/mL
same,MIC,[14],2.5 µg/mL
same,MIC,[15],0.1 µg/mL
same,MIC,[16],> 50 µg/mL
same,MIC,[17],0.625 µg/mL
same,MIC,[18],25 µg/mL
same,MIC,[20],0.1 µg/mL
"CC(=O)C=C(C)CC1OCC(CC2OC2C(C)C(C)O)C(O)C1O [Example 1, 1-[3R,4R-Dihydroxy-5S-(2S,3S-epoxy-5S-hydroxy-4S-methylhexyl)-2,3,5,6-tetrahydropyran-2-S-yl]-2-methylpent-2E-en-4-one]",MIC,[1],> 80 µg/mL
same,MIC,[2],> 80 µg/mL
same,MIC,[3],10 µg/mL
same,MIC,"[5]; Table 3, read-out: MIC",2.5 µg/mL
same,MIC,[6],10 µg/mL
same,MIC,[21],50 µg/mL
same,MIC,[7],> 10 µg/mL
same,MIC,[10],50 µg/mL
same,MIC,[11],10 µg/mL
same,MIC,[12],10 µg/mL
same,MIC,[13],10 µg/mL
same,MIC,[14],> 100 µg/mL
same,MIC,[15],0.25 µg/mL
same,concentration at 5 min,[22]; oral 50 mg/kg,5900 ng/mL
same,concentration at 10 min,[22]; oral 50 mg/kg,7700 ng/mL
same,concentration at 20 min,[22]; oral 50 mg/kg,4800 ng/mL
same,concentration at 0.5 h,[22]; oral 50 mg/kg,< 3000 ng/mL
same,concentration at 1 h,[22]; oral 50 mg/kg,< 3000 ng/mL
same,concentration at 2 h,[22]; oral 50 mg/kg,< 3000 ng/mL
same,concentration at 4 h,[22]; oral 50 mg/kg,< 3000 ng/mL
same,concentration at 5 min,"[22]; sc, subcutaneous 50 mg/kg",16400 ng/mL
same,concentration at 10 min,"[22]; sc, subcutaneous 50 mg/kg",15300 ng/mL
same,concentration at 20 min,"[22]; sc, subcutaneous 50 mg/kg",9800 ng/mL
same,concentration at 0.5 h,"[22]; sc, subcutaneous 50 mg/kg",5000 ng/mL
same,concentration at 1 h,"[22]; sc, subcutaneous 50 mg/kg",< 3000 ng/mL
same,concentration at 2 h,"[22]; sc, subcutaneous 50 mg/kg",< 3000 ng/mL
same,concentration at 4 h,"[22]; sc, subcutaneous 50 mg/kg",< 3000 ng/mL
same,MIC,"[16]; Table 1, read-out: MIC",50 µg/mL
same,MIC,[17],5 µg/mL
same,MIC,[18],100 µg/mL
same,MIC,"[20]; Table 3, read-out: MIC",0.5 µg/mL

# Source: patent US4312874A, “Antibacterial compounds, processes for their preparation and compositions containing them” (Beecham Group Limited, priority 1979, dated 1982)
